Assays:
Water solubility = type: physicochemical
[1] = tested on: MDA-MB-231 breast cancer cells; experiment: MTS cell viability assay with and without UV-A exposure; type: cell-based; conditions: compound added pre-UV exposure (UV-A 30 min), 100 μM and 10 μM, MTS after 24 h, vs. VC, n=4
Experimental: After 24 hours incubation at 37° C., varying concentrations of 2-TPPMDBTO were added and incubated for 1 hour at 37° C. One plate with cells were then left at room temperature covered for 15 minutes (cells without UV). The second plate was exposed to UV-A in a Luzchem photoreactor with 8 LZC-UVA lamps for 15 minutes (Cells with UV). Plates were then incubated for 24 hours at 37° C. and then a MTS cell viability assay (Promega) was performed. Cell viability assay was run on a Flexstation3 mulitmode plate reader and percent viability was calculated. Statistical analyses were performed using GraphPad Prism program.
FIGS. 6A-C show cell studies wherein MDA-MB-231 breast cancer cells were plated at 10,000 cells/well on three 96 well plates. After 24 hours incubation at 37° C., varying concentrations of MA-1 and MA-2 were added and incubated for 1 hour at 37° C. on only two plates (pre-UV and no UV exposure). One plate with cells were then left at room temperature covered for 30 min (no UV). The second plate (pre-UV) and the third plate (post-UV) were exposed to UV-A in a Luzchem photoreactor with 8 LZC-UVA lamps for 30 min. Varying concentrations of MA-1, MA-2, MA-3 and MA-4 were added to post UV plate after irradiation. […] Cell viability assay was run on a Flexstation3 mulitmode plate reader and percent viability was calculated. […]

cell cycle progression = experiment: Cell cycle progression with, without or before UV-A irradiation; type: cell-based

Molecule | water solubility (Water solubility) | % cell viability [1] | cell cycle progression / cell cycle arrest (cell cycle progression; compound administered in the absence of UV or after irradiation) | cell cycle progression / cell cycle arrest (cell cycle progression; compound administered in the absence of UV or after irradiation, listed as 1a) | cell cycle progression / cell cycle arrest (cell cycle progression; in the presence of UV-A irradiation) | cell cycle progression / cell cycle arrest (cell cycle progression; in the presence of UV-A irradiation, listed as 1a)
[O-][s+]1c2ccccc2c2cc(C[P+](c3ccccc3)(c3ccccc3)c3ccccc3)ccc21 (stereo not drawn) [MA-1, (5-oxo-2-dibenzothienylmethyl)triphenylphosphonium] | water soluble | – | – | – | – | –
(5-oxo-2-dibenzothienylmethyl)triphenylphosphonium [MA-1] | – | decrease in % cell viability is observed | the progression of the cell cycle is not arrested | no significant change in the progress was seen | cell cycle progression is arrested | presence of UV-A irradiation is necessary to lead to cell cycle arrest

Reference: patent US12054470B2, “Photoswitchable dibenzothienylmethyl triphenylphosphonium derivatives and methods of treating cancer therewith” (Saint Louis University, priority 2018, dated 2024)
